Consider one compound from US10653680B2, “Treatment of impulsivity-related disorders” (OXFORD UNIVERSITY INNOVATION LIMITED, priority 2016, dated 2020).

Each structure is given as a SMILES string.

The test system of experiment [1] is rats. Briefly: 5-CSRTT, stimulant (cocaine)-induced responding. It is filed as in vivo, rats (males; Long Evans). On the procedure: (§1) Testing was carried out in Vancouver (Canada) using rats (males; Long Evans from Charles River) which were given at least two weeks to acclimatise to the animal facility. They were housed in pairs on a 12 hour reverse light-dark cycle (lights off at 7 am). In the second week of acclimatisation, rats were handled briefly each day. […] For each task, there was then a habituation session to the operant boxes before training began.
(§2) Ebselen, cocaine and 2,5-dimethoxy-4-iodoamphetamine (DOI) were obtained from Sigma Aldrich, and MDL 100,907 was obtained from Tocris. Ebselen was dissolved in 0.5M DMSO and made up to injection volume (8 ml/kg) using 4% cyclodextrin. Cocaine and DOI were dissolved in 0.9% saline. MDL 100,907 was dissolved in 0.9% saline and the pH was adjusted to 6.25 using 1M NaOH and 0.1M HCl.
(§3) All data for the cognitive tasks are presented as mean+SEM change from baseline: • performance on drug day−performance on the previous day
In experiments investigating the effect of ebselen on cocaine and DOI, data were analysed with a two-way ANOVA with ebselen and cocaine/DOI as between-subject factors. If an interaction was detected, this was further investigated using simple main effects analysis. All analyses were conducted using SPSS 22 with p<0.05 considered significant.
To assess the effect of ebselen on stimulant-induced responding, ebselen (10 mg/kg) or vehicle was administered 1 hour prior to cocaine (15 mg/kg i.p.), which in turn was administered 10 minutes prior to testing. Treatments were administered using according to a Latin square design. The inter-trial interval for these sessions was 5 seconds. Two rats were excluded from the data due to increasing levels of omissions across all days of this portion of the study. The experiment was repeated using 0.03 mg/kg MDL 100,907 instead of ebselen.

Experiment [2] relates to rats. Briefly: 5 Choice Serial Reaction Time Task (5-CSRTT). It is filed as in vivo, rats (males; Long Evans). The protocol:
as §1, §2, §3
The data were analysed with repeated measures ANOVA with dose as a within-subject factor. Where appropriate, post-hoc analysis was performed using Student's paired t-test.
This test was performed as described previously (Bari et al., Nature Protocols, 2008, 3(5), 759-767; Robbins, Psychopharmacology, 2002, 163(3), 362-380).
Fourteen rats were trained to respond to brief visual cues presented in one of five target areas with an inter-trial interval of 5 seconds. On the day of testing in the presence of ebselen, the inter-trial interval was lengthened to 7 seconds to cause a reliable increase in premature responding.
Ebselen and vehicle were administered by intraperitoneal (i.p.) injection 1 hour prior to testing. Three doses of ebselen (2, 5 or 10 mg/kg) were studied, administration being in a random order that was determined by a Latin square design. Rats were run five days a week, with the treatment day falling on day three.
Following ebselen, 3 doses of MDL 100,907 (0.01, 0.03 and 0.1 mg/kg, i.p.) were tested in a Latin square design with the first injection occurring one week after the final injection of ebselen. MDL 100,907 is a selective 5-HT2A antagonist. Rats were similarly run five days a week with injections falling on the third day, and the lengthened inter-trial interval was used only on the drug-administration day.
The Latin square design (for both the 5-CSRTT and rGT experiments) was counterbalanced, based on performance in the last training day of each task. A one week wash-out period was given between drug-administration days. A baseline session was performed both the day before and the day after treatment to ensure stable off-drug performance.

For `COc1cccc([C@H](O)C2CCN(CCc3ccc(F)cc3)CC2)c1OC` [MDL 100,907, reference compound], in the experiment with rats [1] (MDL 100,907 0.03 mg/kg before cocaine 15 mg/kg i.p., p=0.282), the “cocaine-induced increases in premature responding” value is listed as “did not reduce cocaine-induced increases in premature responding”. Moreover, the correct response latency result in the experiment on rats [1] (MDL 100,907 0.03 mg/kg, cocaine experiment, p=0.072) is listed as “increased trend”. Besides, the “accuracy (decrease seen following vehicle injection)” value was “significantly negated the decrease in accuracy” in the experiment on rats [2] (MDL 100,907 0.01 mg/kg (second mention), p=0.027); “significantly negated the decrease in accuracy” with rats [2] (MDL 100,907 0.01 mg/kg i.p., p=0.020); “trend” in the experiment with rats [2] (MDL 100,907 0.03 mg/kg i.p., p=0.052). The “other parameters of the 5-CSRTT” value in the experiment with rats [2] (MDL 100,907 0.01, 0.03, 0.1 mg/kg i.p., p=0.170-0.872) is “no detectable effects”. Also, in the experiment with rats [2] (MDL 100,907 at all dosage levels (0.01, 0.03 and 0.1 mg/kg i.p.) vs vehicle, p=0.008, 0.009, 0.001), the premature responding entry was “decreased premature responding”.
